Earlier results, collected in patent publication US20190359769A1, “PHARMACEUTICAL AGENT FOR IRON CHELATING” (Johannes Gutenberg-Universität Mainz, priority 2017, published 2019).
One block for each molecule: values may come before it.

Tests used:
[1] = one study
[2] = studies on rats and humans
[3] = Fe^3+ complex
[4] = in vivo

Structure (SMILES): Cc1c(O)c(=O)ccn1C [DFP, Deferiprone]
proportion of the DFP dose administered found in the urine in the form of inactive 3-O-glucoronide conjugates [1]: 85%

physiological half-life [2]: 8-16 h
Structure (SMILES): O=C(O)c1ccc(-n2nc(-c3ccccc3O)nc2-c2ccccc2O)cc1 [DFX, Deferasirox]

logarithmic stability constant of iron complexes [3]: 30 | plasma half-life [4]: about 5 minutes
Structure (SMILES): CC(=O)N(O)CCCCCNC(=O)CCC(=O)N(O)CCCCCNC(=O)CCC(=O)N(O)CCCCCN [DFO, Deferoxamine]
